Read-outs that look alike come from different tables or passages of the source.
Experiments:
[1] = target: T1, human kappa opioid receptor (Homo sapiens, UniProt P41145); test: biochemical; assay type: binding
T1 construct: expressed in transfected cells; host or cells: Chinese hamster ovary cells (CHO-hKOR), membranes

[2] = target: T1, human kappa opioid receptor; test: biochemical; conditions: for Emax: 1 h, read-out: Efficacy
rats [3] = test: Locomotor activity test; assay type: in vivo, rat; conditions: FIG. 3B
rats [4] = test: Forced swim test (FST); assay type: in vivo, rat; conditions: FIG. 3A
rats [5] = test: Intracranial self-stimulation (ICSS), lateral hypothalamic brain stimulation; assay type: in vivo, rat; conditions: 1.0 mg/kg, IP, 1-hour test sessions, FIG. 4

T1 sequence (P41145 whole entry): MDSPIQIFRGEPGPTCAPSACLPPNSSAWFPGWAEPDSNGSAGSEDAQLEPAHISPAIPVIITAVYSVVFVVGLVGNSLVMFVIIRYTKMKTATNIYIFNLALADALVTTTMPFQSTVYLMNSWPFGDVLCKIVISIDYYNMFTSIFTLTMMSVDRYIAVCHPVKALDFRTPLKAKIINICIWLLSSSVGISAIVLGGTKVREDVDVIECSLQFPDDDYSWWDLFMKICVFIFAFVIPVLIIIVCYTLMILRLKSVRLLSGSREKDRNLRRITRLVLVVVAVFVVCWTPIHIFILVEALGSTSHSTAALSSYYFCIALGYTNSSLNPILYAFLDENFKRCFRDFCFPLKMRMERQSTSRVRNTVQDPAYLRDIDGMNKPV

Compound	Ki [1]	EC50 [2]	Emax [2]	other results
COC(=O)[C@@H]1C[C@H](OC(=O)CNC(=O)OCC2c3ccccc3-c3ccccc32)C(=O)C2[C@@]1(C)CC[C@H]1C(=O)O[C@H](c3ccoc3)C[C@]21C (some centres unmarked) [Compound 21]	> 277 nM	> 4120 nM		
COC(=O)O[C@H]1C[C@@H](C(=O)OC)[C@]2(C)CC[C@H]3C(=O)O[C@H](c4ccoc4)C[C@]3(C)C2C1=O (some centres unmarked) [Compound 29]	> 91 nM	> 1720 nM		
CCOC(=O)O[C@H]1C[C@@H](C(=O)OC)[C@]2(C)CC[C@H]3C(=O)O[C@H](c4ccoc4)C[C@]3(C)C2C1=O (some centres unmarked) [Compound 30]	> 78.9 nM	> 1120 nM		
CC(=O)O[C@H]1C[C@@H](C(=O)O)[C@]2(C)CC[C@@H]3C(=O)O[C@H](c4ccoc4)C[C@]3(C)C2C1=O (stereo partly drawn) [Compound 31, epi-demethyl Salvinorin]	17.3 nM	84 nM	93 ± 5%	
CC(=O)O[C@H]1C[C@@H](C(=O)O)[C@]2(C)CC[C@H]3C(=O)O[C@H](c4ccoc4)C[C@]3(C)C2C1=O (some centres unmarked) [Compound 32, demethyl Salvinorin]	> 115 nM	> 1230 nM		
CCOC(=O)C1CC(OC(C)=O)C(=O)C2C1(C)CCC1C(=O)OC(c3ccoc3)CC12C (centres unmarked) [Compound 34]	365 ± 26 nM	94.4 ± 4.1 nM	110 ± 6.4%	
C#CCCCCOC(=O)C1CC(OC(C)=O)C(=O)C2C1(C)CCC1C(=O)OC(c3ccoc3)CC12C (centres unmarked) [Compound 51]	679 ± 112 nM	224 ± 4 nM	104 ± 16.5%	
COC(=O)[C@@H]1C[C@H](OC(C)=O)C(=O)C2[C@@]1(C)CC[C@H]1C(=O)OC(C3CCOC3)C[C@]21C (some centres unmarked) [Compound 62]	19.3 nM	68.3 nM	117 ± 4.7%	
COC(=O)C1=CC(=O)C=C2[C@@]1(C)CC[C@H]1C(=O)O[C@H](c3ccoc3)C[C@]21C [Compound 70]	> 616 nM	> 5150 nM		
COC(=O)[C@@H]1C[C@@H](NC(C)C)C(=O)C2[C@@]1(C)CC[C@H]1C(=O)O[C@H](c3ccoc3)C[C@]21C (stereo partly drawn) [Compound 75, 2-epi-(N-isopropyl)-salvinorin]	2.3 ± 0.6 nM	7.2 ± 0.3 nM		
COC(=O)[C@@H]1C[C@H](NC(=O)NC(=O)C(Cl)(Cl)Cl)C(=O)C2[C@@]1(C)CC[C@H]1C(=O)O[C@H](c3ccoc3)C[C@]21C (some centres unmarked) [Compound 79]	227 ± 32 nM	471 ± 110 nM	103%	
CCC(=O)N(C)[C@@H]1C[C@@H](C(=O)OC)[C@]2(C)CC[C@H]3C(=O)O[C@H](c4ccoc4)C[C@]3(C)C2C1=O (stereo partly drawn) [Compound 81, 2-epi-(N-methylpropionamide)-salvinorin]	6.9 ± 1.1 nM	12.6 ± 0.9 nM		
COC(=O)[C@@H]1C[C@H](OC(=O)Nc2ccccc2)C(=O)C2[C@@]1(C)CC[C@H]1C(=O)O[C@H](c3ccoc3)C[C@]21C (some centres unmarked) [Compound 86]	282 ± 13 nM	197 ± 39 nM	93%	
COC(=O)[C@@H]1C[C@H](OC(=O)[C@H](C)NC(C)=O)C(=O)C2[C@@]1(C)CC[C@H]1C(=O)O[C@H](c3ccoc3)C[C@]21C (some centres unmarked) [Compound 91]	176 ± 5.5 nM	219 ± 25 nM	93%	
COC(=O)[C@@H]1C[C@H](OC(=O)[C@H](C)N(C)C)C(=O)C2[C@@]1(C)CC[C@H]1C(=O)O[C@H](c3ccoc3)C[C@]21C (some centres unmarked) [Compound 92]	197 ± 19 nM	539 ± 11 nM	90%	
CC(=O)OC1CC(C(=O)NC(C)C(=O)OCc2ccccc2)C2(C)CCC3C(=O)OC(c4ccoc4)CC3(C)C2C1=O (centres unmarked) [Compound 98]	14.2 ± 0.8 nM	46.7 ± 7.3 nM	95%	
CC(=O)OC1CC(C(=O)NCC(=O)OCc2ccccc2)C2(C)CCC3C(=O)OC(c4ccoc4)CC3(C)C2C1=O (centres unmarked) [Compound 100]	470 ± 92 nM	227 ± 15 nM	105%	
CC(=O)OC1CC(C(=O)N2CCCC2C(=O)OCc2ccccc2)C2(C)CCC3C(=O)OC(c4ccoc4)CC3(C)C2C1=O (centres unmarked) [Compound 103]	210 ± 32 nM	348 ± 26 nM	100%	
COC(=O)[C@@H]1C[C@@H](N)C(=O)C2[C@@]1(C)CC[C@H]1C(=O)O[C@H](c3ccoc3)C[C@]21C (stereo partly drawn) [Compound 207b, 2-epi-aminosalvinorin]	223 ± 123 nM	1370 ± 155 nM	84%	
CNC1CC(C(=O)OC)C2(C)CCC3C(=O)OC(c4ccoc4)CC3(C)C2C1=O (centres unmarked) [Compound 208a, 2-(N-methyl)-salvinorin]	328 ± 40 nM	825 ± 93 nM	82%	
CCNC1CC(C(=O)OC)C2(C)CCC3C(=O)OC(c4ccoc4)CC3(C)C2C1=O (centres unmarked) [Compound 209a, 2-(N-ethyl)-salvinorin]	65 ± 24 nM	72.8 ± 4 nM		
COC(=O)C1CC(NC(C)C)C(=O)C2C1(C)CCC1C(=O)OC(c3ccoc3)CC12C (centres unmarked) [Compound 210a, 2-(N-isopropyl)-salvinorin]	17.6 ± 3.1 nM	18.9 ± 0.6 nM	99%	
COC(=O)C1CC(N(C)C)C(=O)C2C1(C)CCC1C(=O)OC(c3ccoc3)CC12C (centres unmarked) [Compound 211a, 2-(N,N-dimethyl)-salvinorin]	168 ± 10 nM	240 ± 23 nM	110%	
COC(=O)C1CC(NC(C)=O)C(=O)C2C1(C)CCC1C(=O)OC(c3ccoc3)CC12C (centres unmarked) [Compound 212a, 2-(acetamide)-salvinorin]	149 ± 1 nM	188 ± 2 nM		
COC(=O)C1CC(NC(C)=O)C(=O)C2C1(C)CCC1C(=O)OC(c3ccoc3)CC12C (stereo not drawn) [Compound 212b, 2-epi-(acetamide)-salvinorin]				Ki ([1]; read-out: Ki): 332 ± 41 nM; EC50 ([2]; read-out: EC50): 339 ± 33 nM
COC(=O)C1CC(N(C)C(C)=O)C(=O)C2C1(C)CCC1C(=O)OC(c3ccoc3)CC12C (centres unmarked) [Compound 214a, 2-(N-methylacetamide)-salvinorin]	3.2 ± 0.1 nM	2.4 ± 0.7 nM	103%	
COC(=O)[C@@H]1C[C@H](OC(C)=O)C(=O)C2[C@@]1(C)CC[C@H]1C(=O)O[C@H](c3ccoc3)C[C@]21C (some centres unmarked) [salvinorin A]				effect on locomotor activity (rats [3]): without affecting locomotor activity; effect in the forced swim test (rats [4]): depressive-like effects; ICSS thresholds (rats [5]): significantly elevated ICSS thresholds
